In US20260028354A1, “TETRAHYDRONAPHTHALENE DERIVATIVES AS ESTROGEN RECEPTOR DEGRADERS” (REGENT OF THE UNIVERSITY OF MICHIGAN, priority 2022, published 2026):
One block for each compound: values may come before it.

How the values were obtained:
[1] = test system: MCF-7 cells; experiment: CellTiter-Glo (CTG) cell proliferation assay in MCF-7 cells; type: cell-based; conditions: Homo sapiens, MCF7, 144 h, MCF-7 cell proliferation, Day 6
Source text: CellTiter-Glo® (CTG) Assays in MCF-7 and T47D Cell Lines.
In vitro Assay: MCF-7 and T47D CTG assay

[2] = target: ER in T47D cells (Homo sapiens (Human), UniProt P03372); experiment: In-cell Western (ICW) ER degradation assay in T47D cells; type: cell-based; conditions: 16 hrs treatment; for DC50: ER degradation; for Dmax: maximal ER degradation, read-out: T47D Dmax
Chain of ER in T47D cells (P03372 whole entry): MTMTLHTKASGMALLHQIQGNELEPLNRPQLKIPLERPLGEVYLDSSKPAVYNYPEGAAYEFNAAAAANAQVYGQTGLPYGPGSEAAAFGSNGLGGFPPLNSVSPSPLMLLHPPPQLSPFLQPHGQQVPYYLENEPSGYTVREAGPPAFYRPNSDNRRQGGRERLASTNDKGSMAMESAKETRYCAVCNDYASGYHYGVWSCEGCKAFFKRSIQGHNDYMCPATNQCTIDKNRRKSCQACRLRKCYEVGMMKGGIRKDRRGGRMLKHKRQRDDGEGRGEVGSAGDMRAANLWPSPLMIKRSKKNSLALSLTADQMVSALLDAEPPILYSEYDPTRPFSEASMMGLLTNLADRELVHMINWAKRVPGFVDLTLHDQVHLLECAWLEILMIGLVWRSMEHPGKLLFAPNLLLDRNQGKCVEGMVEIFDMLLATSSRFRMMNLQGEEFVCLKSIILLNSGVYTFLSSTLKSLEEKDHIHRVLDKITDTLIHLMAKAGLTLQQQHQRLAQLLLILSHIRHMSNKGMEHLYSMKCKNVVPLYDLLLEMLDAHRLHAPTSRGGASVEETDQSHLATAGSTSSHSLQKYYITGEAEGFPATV

[3] = target: CRBN/DDB1 (Homo sapiens (Human), UniProt Q96SW2); type: binding; conditions: His tagged CRBN+DDB1, Cy5-labeled Thalidomide probe, one hour; read-out: CRBN HTRF IC50
Chain of CRBN/DDB1 (Q96SW2 whole entry, species assumed): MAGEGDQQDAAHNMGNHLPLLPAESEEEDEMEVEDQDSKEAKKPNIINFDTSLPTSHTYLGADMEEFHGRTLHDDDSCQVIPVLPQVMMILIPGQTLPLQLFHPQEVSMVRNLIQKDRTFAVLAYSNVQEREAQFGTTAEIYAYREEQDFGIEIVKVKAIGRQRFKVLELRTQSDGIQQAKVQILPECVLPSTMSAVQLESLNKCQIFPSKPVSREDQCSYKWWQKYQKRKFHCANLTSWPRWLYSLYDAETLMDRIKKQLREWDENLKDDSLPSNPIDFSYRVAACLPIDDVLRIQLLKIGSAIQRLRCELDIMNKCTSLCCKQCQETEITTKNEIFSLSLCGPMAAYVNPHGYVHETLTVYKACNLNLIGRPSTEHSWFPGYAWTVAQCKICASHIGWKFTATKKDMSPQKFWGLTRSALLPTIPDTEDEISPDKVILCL
Chain of CRBN/DDB1 (Q16531 whole entry partner, species assumed): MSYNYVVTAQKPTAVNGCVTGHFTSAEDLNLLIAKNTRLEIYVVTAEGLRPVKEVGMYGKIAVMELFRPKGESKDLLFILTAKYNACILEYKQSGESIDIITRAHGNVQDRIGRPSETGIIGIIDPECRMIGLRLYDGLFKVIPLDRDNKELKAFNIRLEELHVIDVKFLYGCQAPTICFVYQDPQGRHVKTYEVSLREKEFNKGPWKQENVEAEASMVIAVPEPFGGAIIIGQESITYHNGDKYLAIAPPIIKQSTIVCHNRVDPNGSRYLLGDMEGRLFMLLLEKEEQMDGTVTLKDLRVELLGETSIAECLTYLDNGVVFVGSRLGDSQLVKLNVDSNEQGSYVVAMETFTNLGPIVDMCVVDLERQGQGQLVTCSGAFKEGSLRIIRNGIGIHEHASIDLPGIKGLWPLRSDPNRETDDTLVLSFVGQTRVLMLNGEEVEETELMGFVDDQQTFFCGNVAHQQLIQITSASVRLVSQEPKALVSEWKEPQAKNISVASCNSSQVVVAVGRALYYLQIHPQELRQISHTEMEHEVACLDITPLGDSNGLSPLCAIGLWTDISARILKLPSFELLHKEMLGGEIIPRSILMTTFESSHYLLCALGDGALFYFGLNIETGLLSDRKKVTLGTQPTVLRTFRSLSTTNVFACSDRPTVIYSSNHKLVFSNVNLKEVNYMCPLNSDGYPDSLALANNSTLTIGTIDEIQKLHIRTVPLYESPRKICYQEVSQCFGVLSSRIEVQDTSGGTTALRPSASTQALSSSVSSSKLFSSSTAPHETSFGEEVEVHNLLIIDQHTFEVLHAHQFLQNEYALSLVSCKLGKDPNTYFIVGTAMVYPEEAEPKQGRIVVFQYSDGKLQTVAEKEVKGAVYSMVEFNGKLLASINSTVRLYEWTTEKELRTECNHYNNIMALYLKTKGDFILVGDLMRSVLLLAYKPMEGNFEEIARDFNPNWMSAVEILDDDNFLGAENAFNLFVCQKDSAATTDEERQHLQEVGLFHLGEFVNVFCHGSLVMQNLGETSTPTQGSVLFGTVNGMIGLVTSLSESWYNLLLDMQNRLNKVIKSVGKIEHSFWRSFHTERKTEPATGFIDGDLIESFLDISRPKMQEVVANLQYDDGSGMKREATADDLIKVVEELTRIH
Procedure: The binding potency was determined using HTRF assay technology (Perkin Elmer). Compounds were serially diluted in DMSO and […] volume was transferred to white 384-well plate.

[4] = target: ER in MCF-7 cells (Homo sapiens (Human), UniProt P03372); experiment: In-cell Western (ICW) ER degradation assay in MCF-7 cells; type: cell-based; conditions: 16 hrs treatment; for Dmax: MCF7, MCF-7, maximal ER degradation, read-out: MCF7 Dmax; for DC50: MCF-7, ER degradation, read-out: MCF7 DC50
Chain of ER in MCF-7 cells (P03372 whole entry): as the sequence (P03372 whole entry) above

IC50 [1]: 0.01 to 0.1 µM
Structure (SMILES): COc1cc(N2CCC3(CC2)CC(CN2CCN4c5cc(C)c6c(c5OC[C@H]4C2)CN([C@H]2CCC(=O)NC2=O)C6=O)C3)c(F)cc1[C@@H]1c2ccc(O)cc2CC[C@@H]1c1ccccc1 [Compound A228, (S)-3-((R)-7-((7-(2-fluoro-4-((1S,2S)-6-hydroxy-2-phenyl-1,2,3,4-tetrahydronaphthalen-1-yl)-5-methoxyphenyl)-7-aza-spiro[3.5]nonan-2-yl)methyl)-12-methyl-1-oxo-1,3,5,5a,6,7,8,9-octahydro-2H-pyrazino [1′,2′:4,5][1,4]oxazino[2,3-e]isoindol-2-yl)piperidine-2,6-dione]

Structure (SMILES): COc1cc(N2CCC(CCN3CCC4(CC3)COc3c4cc(C)c4c3CN([C@H]3CCC(=O)NC3=O)C4=O)CC2)c(F)cc1[C@@H]1c2ccc(O)cc2CC[C@@H]1c1ccccc1 [Compound A213, (S)-3-(1′-(2-(1-(2-fluoro-4-((1S,2S)-6-hydroxy-2-phenyl-1,2,3,4-tetrahydronaphthalen-1-yl)-5-methoxyphenyl)piper-idin-4-yl)ethyl)-5-methyl-6-oxo-6,8-dihydro-2H,7H-spiro [furo[2,3-e]isoindole-3,4′-piperidin]-7-yl)piperidine-2,6-dione]
IC50 [1]: < 0.01 µM

Structure (SMILES): COc1cc(N2CCC(CCN3CCC4(CC3)COc3c4cc(OC)c4c3CN([C@@H]3CCC(=O)NC3=O)C4=O)CC2)c(F)cc1[C@@H]1c2ccc(O)cc2CC[C@@H]1c1ccccc1 [Compound A225, (R)-3-(1′-(2-(1-(2-fluoro-4-((1S,2S)-6-hydroxy-2-phenyl-1,2,3,4-tetrahydronaphthalen-1-yl)-5-methoxyphenyl)piperidin-4-yl)ethyl)-5-methoxy-6-oxo-6,8-dihydro-2H,7H-spiro[furo[2,3-e]isoindole-3,4′-piperidin]-7-yl)piperidine-2,6-dione]
IC50 [1]: < 0.01 µM

Structure (SMILES): COc1cc(N2CCC(CCN3CCC4(CC3)COc3c4cc4c(c3Cl)C(=O)N([C@H]3CCC(=O)NC3=O)C4)CC2)c(F)cc1[C@@H]1c2ccc(O)cc2CC[C@@H]1c1ccccc1 [Compound A217, (S)-3-(8-chloro-1′-(2-(1-(2-fluoro-4-((1S,2S)-6-hydroxy-2-phenyl-1,2,3,4-tetrahydronaph-thalen-1-yl)-5-methoxyphenyl)-piperidin-4-yl)ethyl)-7-oxo-5,7-dihydro-2H,6H-spiro[furo[2,3-f]isoindole-3,4′-piperidin]-6-yl)piperidine-2,6-dione]
IC50 [1]: < 0.01 µM

Structure (SMILES): COc1cc(N2CCC3(CC2)CC(CN2CCC4(CC2)COc2c4cc4c(c2C)C(=O)N([C@H]2CCC(=O)NC2=O)C4)C3)c(F)cc1[C@@H]1c2ccc(O)cc2CC[C@@H]1c1ccccc1 [Compound A220, (S)-3-(1′-((7-(2-fluoro-4-((1S,2S)-6-hydroxy-2-phenyl-1,2,3,4-tetrahydronaphthalen-1-yl)-5-methoxyphenyl)-7-aza-spiro[3.5]nonan-2-yl)methyl)-8-methyl-7-oxo-5,7-dihydro-2H,6H-spiro[furo[2,3-f]iso-indole-3,4′-piperidin]-6-yl)-piperidine-2,6-dione]
IC50 [1]: < 0.01 µM

Structure (SMILES): Cc1cc2c(c3c1C(=O)N([C@H]1CCC(=O)NC1=O)C3)OCC21CCN(C[C@@H]2CCC3(CCN(c4ccc([C@@H]5c6ccc(O)cc6CC[C@@H]5c5ccccc5)cc4)CC3)OC2)CC1 [Compound A209, (S)-3-(1′-(((S)-9-(4-((1R,2S)-6-hydroxy-2-phenyl-1,2,3,4-tetrahydronaphthalen-1-yl)phenyl)-1-oxa-9-azaspiro[5.5]undecan-3-yl)methyl)-5-methyl-6-oxo-6,8-dihydro-2H,7H-spiro[furo[2,3-e]isoindole-3,4′-piperidin]-7-yl)piperidine-2,6-dione]
IC50 [1]: < 0.01 µM

IC50 [1]: > 0.1 µM
Structure (SMILES): COc1cc(N2CCC3(CC2)CC(CN2CCN4c5cc(Cl)c6c(c5OC[C@H]4C2)CN([C@H]2CCC(=O)NC2=O)C6=O)C3)c(F)cc1[C@@H]1c2ccc(O)cc2CC[C@@H]1c1ccccc1 [Compound A221, (S)-3-((R)-12-chloro-7-((7-(2-fluoro-4-((1S,2S)-6-hydroxy-2-phenyl-1,2,3,4-tetrahydronaph-thalen-1-yl)-5-methoxyphenyl)-7-azaspiro[3.5]nonan-2-yl)-methyl)-1-oxo-1,3,5,5a,6,7,8,9-octahydro-2H-pyrazino[1′,2′: 4,5][1,4]oxazino[2,3-e]isoindol-2-yl)piperidine-2,6-dione]

Structure (SMILES): COc1cc(N2CCC3(CC2)CC(CN2CCC4(CC2)COc2c4cc4c(c2C)C(=O)N([C@@H]2CCC(=O)NC2=O)C4)C3)c(F)cc1[C@@H]1c2ccc(O)cc2CC[C@@H]1c1ccccc1 [Compound A219, (R)-3-(1′-((7-(2-fluoro-4-((1S, 2S)-6-hydroxy-2-phenyl-1,2,3,4-tetrahydronaphthalen-1-yl)-5-methoxyphenyl)-7-aza-spiro[3.5]nonan-2-yl)methyl)-8-methyl-7-oxo-5,7-dihydro-2H,6H-spiro[furo[2,3-f]iso-indole-3,4′-piperidin]-6-yl)-piperidine-2,6-dione]
IC50 [1]: < 0.01 µM

Structure (SMILES): Cc1cc2c(c3c1C(=O)N([C@H]1CCC(=O)NC1=O)C3)OCC21CCN(CC2CC3(CCN(c4ccc([C@@H]5c6ccc(O)cc6CC[C@@H]5c5ccccc5)cc4)CC3)C2)CC1 [Compound A214, (S)-3-(1′-((7-(4-((1R,2S)-6-hydroxy-2-phenyl-1,2,3,4-tetra-hydronaphthalen-1-yl)phenyl)-7-azaspiro[3.5]nonan-2-yl)-methyl)-5-methyl-6-oxo-6,8-dihydro-2H,7H-spiro[furo[2,3-c]isoindolc-3,4′-pipcridin]-7-yl)piperidine-2,6-dione]
IC50 [1]: < 0.01 µM

Structure (SMILES): COc1cc(N2CCC3(CC2)CC(CN2CCC4(CC2)COc2c4cc(OC)c4c2CN([C@@H]2CCC(=O)NC2=O)C4=O)C3)c(F)cc1[C@@H]1c2ccc(O)cc2CC[C@@H]1c1ccccc1 [Compound A223, (R)-3-(1′-((7-(2-fluoro-4-((1S,2S)-6-hydroxy-2-phenyl-1,2,3,4-tetrahydronaphthalen-1-yl)-5-methoxyphenyl)-7-azaspiro[3.5]nonan-2-yl)methyl)-5-methoxy-6-oxo-6,8-dihydro-2H,7H-spiro[furo[2,3-e]isoindole-3,4′-piperidin]-7-yl)piperidine-2,6-dione]
IC50 [1]: < 0.01 µM

Structure (SMILES): COc1cc(N2CCC3(CC2)C[C@H](CN2CCC4(CC2)COc2c4cc(C)c4c2CN([C@H]2CCC(=O)NC2=O)C4=O)CO3)c(F)cc1[C@@H]1c2ccc(O)cc2CC[C@@H]1c1ccccc1 [Compound A208, (3S)-3-[1′-[[(3R)-8-[2-fluoro-4-[(1S,2S)-6-hydroxy-2-phenyl-tetralin-1-yl]-5-methoxy-phenyl]-1-oxa-8-azaspiro[4.5]decan-3-yl]methyl]-5-methyl-6-oxo-spiro[2,8-dihydrofuro[2,3-e]isoindole-3,4′-piperidine]-7-yl]piperidine-2,6-dione]
IC50 [1]: 0.01 to 0.1 µM

Structure (SMILES): COc1cc(N2CCC3(CC2)CC(CN2CCN4c5ccc(C(=O)N[C@H]6CCC(=O)NC6=O)nc5OCC4C2)C3)ccc1[C@@H]1c2ccc(O)cc2CC[C@@H]1c1ccccc1 (stereo in doubt) [Compound A108, (S)-N-((S)-2,6-dioxopiperidin-3-yl)-3-((7-(4-((1S,2S)-6-hydroxy-2-phenyl-1,2,3,4-tetra-hydronaphthalen-1-yl)-3-meth-oxyphenyl)-7-azaspiro[3.5]nonan-2-yl)methyl)-1,2,3,4,4a, 5-hexahydropyrazino[1,2-d] pyrido[2,3-b][1,4]oxazine-8-carboxamide]
DC50 [2]: < 0.001 µM
Dmax [2]: 50 to 75%
IC50 [3]: 0.5 to 5 µM
Dmax [4]: 50 to 75%
DC50 [4]: < 0.001 µM

IC50 [1]: 0.01 to 0.1 µM
Structure (SMILES): COc1cc(N2CCC(CCN3CCN4c5cc(Cl)c6c(c5OC[C@H]4C3)CN([C@H]3CCC(=O)NC3=O)C6=O)CC2)c(F)cc1[C@@H]1c2ccc(O)cc2CC[C@@H]1c1ccccc1 [Compound A224, (S)-3-((R)-12-chloro-7-(2-(1-(2-fluoro-4-((1S,2S)-6-hydroxy-2-phenyl-1,2,3,4-tetrahydronaphthalen-1-yl)-5-methoxyphenyl)piperidin-4-yl)ethyl)-1-oxo-1,3,5,5a,6,7,8,9-octahydro-2H-pyrazino[1′,2′: 4,5][1,4]oxazino[2,3-e]isoindol-2-yl)piperidine-2,6-dione]

Structure (SMILES): O=C1CC[C@@H](Nc2ccc(C3CCN(C[C@@H]4COC5(CCN(c6ccc([C@H]7c8ccc(O)cc8CC[C@H]7c7ccccc7)cc6)CC5)C4)CC3)c(F)c2)C(=O)N1 (single isomer, unassigned) [Compound A60]
DC50 [2]: > 0.1 µM
Dmax [2]: < 25%
IC50 [3]: 0.05 to 0.5 µM
Dmax [4]: 25 to 50%
DC50 [4]: > 0.1 µM

Structure (SMILES): O=C1CC[C@H](Nc2ccc(C3CCN(C[C@@H]4COC5(CCN(c6ccc([C@H]7c8ccc(O)cc8CC[C@H]7c7ccccc7)cc6)CC5)C4)CC3)cc2)C(=O)N1 (single isomer, unassigned) [Compound A50]
DC50 [2]: < 0.001 µM
Dmax [2]: 50 to 75%
IC50 [3]: 0.05 to 0.5 µM
Dmax [4]: 50 to 75%
DC50 [4]: < 0.001 µM

Structure (SMILES): COc1cc(N2CC3(CC(CN4CCN5c6ccc7c(c6OC[C@H]5C4)CN([C@H]4CCC(=O)NC4=O)C7=O)CO3)C2)ccc1[C@@H]1c2ccc(O)cc2CC[C@@H]1c1ccccc1 (single isomer, unassigned) [Compound A48]
DC50 [2]: 0.001 to 0.01 µM
Dmax [2]: 50 to 75%
IC50 [3]: 0.05 to 0.5 µM
Dmax [4]: 50 to 75%
DC50 [4]: 0.001 to 0.01 µM
